Results reported in the supplement of paper PMC10307832.

Compound: C1CN(CCN1)C2=CC=C(C=C2)C3=CN4C(=C(C=N4)C5=CC=NC6=CC=CC=C56)N=C3 [DM3189] + CC(=O)c1c(C)c2cnc(Nc3ccc(N4CCNCC4)cn3)nc2n(C2CCCC2)c1=O [Palbociclib] (partner 0.5 µM)
Assay: relative viability (nuclei count vs DMSO), 5 days (fraction); higher = more cells survive
Outline: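 Medians of duplicate plates are given as relative viability. That measure is the nuclei count in treated wells divided by the count in vehicle wells. Counts were taken on 4× images of lung cancer cell lines in 1536-well plates, 5 days after pin-tool dosing the day after seeding with one drug alone or a fixed anchor-drug dose plus five library-drug doses (not always all listed) in √10 steps.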

Cell Line	relative viability (first compound 0.08 µM)	relative viability (first compound 0.253 µM)	relative viability (first compound 0.8 µM)	relative viability (first compound 2.53 µM)
201T	0.419	0.364	0.342	0.366
A-427	0.593	0.492	0.474	0.524
ABC-1	0.713	0.642	0.498	0.553
BEN	0.497	0.484	0.441	0.545
CAL-12T	0.713	0.335	0.451	0.352
COR-L23	0.292	0.242	0.201	0.192
COR-L 105	0.408	0.441	0.353	0.489
ChaGo-K-1	0.947	0.908	0.914	0.964
EKVX	0.402		0.291	0.393
EMC-BAC-2	0.515	0.494	0.484	0.525
EPLC-272H	0.321	0.318	0.343	0.341
H3255	0.37	0.313	0.308	0.329
HARA	0.288	0.194	0.225	0.263
HCC-15	0.832	0.721	0.675	0.844
HCC-44	0.898	0.976	0.798	0.951
HCC-78	0.479	0.395	0.423	0.586
HCC-366	0.408	0.286	0.244	0.341
HCC-827	0.539	0.437	0.452	0.428
HOP-62	0.53	0.453	0.46	0.402
LC-2-ad	0.561	0.507	0.487	0.49
LCLC-97TM1	0.196	0.154	0.177	0.178
LCLC-103H	0.536	0.434	0.45	0.455
LK-2	0.51	0.393	0.387	0.243
LOU-NH91	0.514	0.53	0.501	0.562

Cell Line	relative viability (first compound 0.08 µM)	relative viability (first compound 0.253 µM)	relative viability (first compound 0.8 µM)	relative viability (first compound 2.53 µM)
LU99A	0.482	0.372		0.365
LXF-289	0.597	0.606	0.565	0.562
NCI-H23	0.468	0.43	0.496	0.485
NCI-H322M	0.501	0.489	0.516	0.43
NCI-H358	0.278	0.13	0.126	0.127
NCI-H441	0.25	0.222	0.197	0.169
NCI-H460	0.305	0.187	0.158	0.16
NCI-H520	0.206	0.202	0.206	0.173
NCI-H522	1.27	0.808	1.1	0.998
NCI-H647	0.4	0.378	0.273	0.217
NCI-H650	0.321	0.311	0.304	0.369
NCI-H661	0.411	0.394	0.396	0.381
NCI-H727	0.581	0.581	0.579	0.608
NCI-H838	0.265	0.224	0.174	0.205
NCI-H1355	0.357	0.416	0.349	0.387
NCI-H1395	0.528	0.593		0.605
NCI-H1437	0.359	0.364	0.339	0.388
NCI-H1650	0.407	0.292	0.349	0.309
NCI-H1651	0.543	0.554	0.582	0.574
NCI-H1666	0.553	0.637	0.656	
NCI-H1734	0.34	0.344	0.283	0.294
NCI-H1755	0.467	0.431	0.403	0.396
NCI-H1792	0.569	0.675	0.716	0.609
NCI-H1793	0.414	0.432	0.448	0.451

Cell Line	relative viability (first compound 0.08 µM)	relative viability (first compound 0.253 µM)	relative viability (first compound 0.8 µM)	relative viability (first compound 2.53 µM)
NCI-H1915	0.506	0.47	0.437	0.481
NCI-H1944	0.351	0.327	0.288	0.301
NCI-H1975	0.697	0.57	0.379	0.333
NCI-H1993	0.779	0.809	0.571	0.736
NCI-H2009	0.264	0.195	0.184	0.217
NCI-H2023	0.38	0.396	0.4	0.336
NCI-H2085	0.47	0.457	0.468	0.537
NCI-H2087	0.212	0.197	0.224	0.238
NCI-H2126	0.346	0.348	0.367	0.374
NCI-H2170	0.484	0.363	0.368	0.347
NCI-H2228	1.09	0.75	0.472	0.307
NCI-H2347	0.412	0.4	0.417	0.435
NCI-H2405	0.54	0.55	0.494	0.453
NCI-H3122	0.2	0.178	0.154	0.162
PC-3 [JPC-3]	0.574	0.48	0.553	0.543
PC-14	0.591	0.458	0.465	0.449
RERF-LC-KJ	1.31	1.27	0.989	1.03
SK-LU-1	0.339	0.268	0.329	0.31
SK-MES-1	0.236	0.26	0.343	0.305
SW 900	0.464		0.45	0.479
SW 1573	0.454	0.342	0.339	0.255
UMC-11	0.371	0.333	0.313	0.323
